# Patent US20230094922A1, “METHODS OF THERAPEUTIC PROGNOSTICATION” (GENETIKAPLUS LTD., priority 2020, published 2023)
# Tested on: iPSC-derived cortical neurons
# Type: cell-based
# Conditions: responders vs non-responders, 10 μM Bupropion
structure (smiles),measurement,setting,value
"CC(NC(C)(C)C)C(=O)c1cccc(Cl)c1 (stereo not drawn) [Bupropion, 3-Chloro-N-tert-butyl-β-keto-α-methylphenethylamin]",logFC LGI1 expression,p<0.01,0.9793
same,logFC LRRC8B expression,p<0.01,0.4223
same,logFC MCM4 expression,p<0.01,0.5295
same,logFC MCUR1 expression,p<0.01,0.2421
same,logFC MDN1 expression,p<0.01,0.4167
same,logFC MEIOC expression,p<0.01,0.7172
same,logFC MGA expression,p<0.01,0.3064
same,logFC MGME1 expression,p<0.01,0.4368
same,logFC MZT1 expression,p<0.01,0.4887
same,logFC NFKBID expression,p<0.01,0.4452
same,logFC NOS2 expression,p<0.01,1.462
same,logFC NPY2R expression,p<0.01,1.653
same,logFC OSBPL11 expression,p<0.01,0.3394
same,logFC PAWR expression,p<0.01,0.4771
same,logFC PCGF5 expression,p<0.01,0.6056
same,logFC PHF6 expression,p<0.01,0.4686
same,logFC POU5F1B expression,p<0.01,0.9729
same,logFC PPAT expression,p<0.01,0.4669
same,logFC PRKDC expression,p<0.01,0.3963
same,logFC PTPN13 expression,p<0.01,0.5645
same,logFC RNGTT expression,p<0.01,0.3114
same,logFC S100A13 expression,p<0.01,0.7404
same,logFC SELENOI expression,p<0.01,0.336
same,logFC SFRP4 expression,p<0.01,1.737
same,logFC SIGLEC10 expression,p<0.01,0.8067
same,logFC SIKE1 expression,p<0.01,0.3013
same,logFC SIM1 expression,p<0.01,2.052
same,logFC SLC7A11 expression,p<0.01,0.6075
same,logFC SLC25A13 expression,p<0.01,0.3285
same,logFC SLC25A17 expression,p<0.01,0.3611
same,logFC SMG1 expression,p<0.01,0.2796
same,logFC SNRNP48 expression,p<0.01,0.4371
same,logFC SPIN4 expression,p<0.01,0.4838
same,logFC STK38L expression,p<0.01,0.387
same,logFC SYCP2L expression,p<0.01,0.5973
same,logFC TFAM expression,p<0.01,0.4583
same,logFC TIGAR expression,p<0.01,0.4965
same,logFC TNFRSF13C expression,p<0.01,0.5218
same,logFC TSGA10IP expression,p<0.01,0.8595
same,logFC TXNRD1 expression,p<0.01,0.3112
same,logFC USP37 expression,p<0.01,0.2938
same,logFC WNT8B expression,p<0.01,1.79
same,logFC WNT10B expression,p<0.01,1.077
same,logFC WWP1 expression,p<0.01,0.3073
same,logFC ZBTB24 expression,p<0.01,0.4021
same,logFC ZC3H13 expression,p<0.01,0.2827
same,logFC ZNF347 expression,p<0.01,0.3648
same,logFC ZWILCH expression,p<0.01,0.4164
same,logFC ACKR1,PValue NS,−1.506
same,logFC ACVR2A,PValue NS,−0.6074
same,logFC ADGRA1,PValue NS,−1.373
same,logFC ADGRG1,PValue NS,−0.7037
same,logFC AFAP1,PValue NS,−0.7585
same,logFC ANKRD34A,PValue NS,−1.243
same,logFC APBA1,PValue NS,−1.797
same,logFC APC2,PValue NS,−1.57
same,logFC APOL6,PValue NS,−1.252
same,logFC ARHGAP22,PValue NS,−2.023
same,logFC ASIC2,PValue NS,−1.907
same,logFC ATL1,PValue NS,−1.284
same,logFC ATP8A1,PValue NS,−1.064
same,logFC BCL11A,PValue NS,−1.755
same,logFC BTBD8,PValue NS,−0.8605
same,logFC C1QL1,PValue NS,−1.952
same,logFC C11orf87,PValue NS,−2.65
same,logFC C11orf95,PValue NS,−0.652
same,logFC C14orf132,PValue NS,−1.198
same,logFC CACNA1E,PValue NS,−1.888
same,logFC CALY,PValue NS,−1.348
same,logFC CARMIL3,PValue NS,−1.181
same,logFC CBFA2T3,PValue NS,−1.14
same,logFC CDKN2D,PValue NS,−1.375
same,logFC CEND1,PValue NS,−1.295
same,logFC CHD5,PValue NS,−1.435
same,logFC CHRNB4,PValue NS,−1.488
same,logFC CHRNG,PValue NS,−1.545
same,logFC CNR1,PValue NS,−1.187
same,logFC CNTN2,PValue NS,−2.494
same,logFC CRYGD,PValue NS,−3.453
same,logFC CTIF,PValue NS,−0.9638
same,logFC DACT3,PValue NS,−0.903
same,logFC DCLK1,PValue NS,−1.159
same,logFC DISP3,PValue NS,−1.132
same,logFC DLGAP3,PValue NS,−1.159
same,logFC DLL4,PValue NS,−2.038
same,logFC DNAJC6,PValue NS,−1.057
same,logFC DNAJC12,PValue NS,−0.9874
same,logFC DNM3,PValue NS,−1.295
same,logFC DOC2B,PValue NS,−2.034
same,logFC DOK4,PValue NS,−0.8299
same,logFC DPF3,PValue NS,−1.335
same,logFC DPP6,PValue NS,−1.175
same,logFC DUSP8,PValue NS,−1.12
same,logFC DUSP26,PValue NS,−1.67
same,logFC ELAVL2,PValue NS,−0.9184
same,logFC ELAVL3,PValue NS,−1.463
same,logFC ELMOD1,PValue NS,−1.395
same,logFC EPHB2,PValue NS,−1.009
same,logFC ERC2,PValue NS,−0.9757
same,logFC ESRRB,PValue NS,−1.635
same,logFC ESRRG,PValue NS,−1.003
same,logFC FAM78B,PValue NS,−1.309
same,logFC FAM131C,PValue NS,−1.177
same,logFC FAM155A,PValue NS,−0.6581
same,logFC FBLL1,PValue NS,−1.499
same,logFC FBXL16,PValue NS,−0.9816
same,logFC FLRT2,PValue NS,−0.9821
same,logFC FRRS1L,PValue NS,−1.313
same,logFC GALNT15,PValue NS,−1.592
same,logFC GDAP1L1,PValue NS,−1.2
same,logFC GDI1,PValue NS,−0.5928
same,logFC GNAT3,PValue NS,−1.874
same,logFC GNAZ,PValue NS,−0.8379
same,logFC GNG2,PValue NS,−1.148
same,logFC GPR12,PValue NS,−2.094
same,logFC GPR83,PValue NS,−1.576
same,logFC GPRASP1,PValue NS,−0.7562
same,logFC GPRIN3,PValue NS,−1.516
same,logFC GRIN2B,PValue NS,−2.921
same,logFC GRIN3A,PValue NS,−2.57
same,logFC GRM6,PValue NS,−1.37
same,logFC GRM7,PValue NS,−1.699
same,logFC GSE1,PValue NS,−0.6973
same,logFC GSTM3,PValue NS,−1.177
same,logFC HIVEP3,PValue NS,−1.261
same,logFC HPCAL4,PValue NS,−1.489
same,logFC INSYN1,PValue NS,−1.208
same,logFC INSYN2A,PValue NS,−1.914
same,logFC IQSEC3,PValue NS,−1.513
same,logFC JAKMIP3,PValue NS,−0.927
same,logFC KIDINS220,PValue NS,−0.8542
same,logFC KIF1A,PValue NS,−1.165
same,logFC KIF21B,PValue NS,−1.336
same,logFC KLF7,PValue NS,−0.8775
same,logFC L1CAM,PValue NS,−1.21
same,logFC LANCL2,PValue NS,−0.7582
same,logFC LBH,PValue NS,−0.8003
same,logFC MACO1,PValue NS,−0.6324
same,logFC MADD,PValue NS,−0.7392
same,logFC MAGEE1,PValue NS,−0.8404
same,logFC MANEAL,PValue NS,−1.302
same,logFC MAOA,PValue NS,−1.531
same,logFC MAP3K10,PValue NS,−0.7965
same,logFC MAPK8IP1,PValue NS,−1.32
same,logFC MAPT,PValue NS,−1.894
same,logFC MCF2L,PValue NS,−1.13
same,logFC MDGA1,PValue NS,−1.126
same,logFC MLLT11,PValue NS,−1.039
same,logFC MSANTD1,PValue NS,−1.341
same,logFC MTMR4,PValue NS,−0.6785
same,logFC MVB12B,PValue NS,−1.106
same,logFC MYH3,PValue NS,−3.064
same,logFC MYH6,PValue NS,−3.72
same,logFC MYT1,PValue NS,−1.297
same,logFC MYT1L,PValue NS,−2.032
same,logFC NAPB,PValue NS,−1.05
same,logFC NCAN,PValue NS,−1.327
same,logFC NCS1,PValue NS,−1.056
same,logFC NDP,PValue NS,−2.196
same,logFC NEFL,PValue NS,−0.8556
same,logFC NKAIN2,PValue NS,−1.212
same,logFC NOL4L,PValue NS,−0.7376
same,logFC NRN1,PValue NS,−0.9586
same,logFC NRXN2,PValue NS,−1.352
same,logFC NTRK1,PValue NS,−1.53
same,logFC NTS,PValue NS,−1.335
same,logFC NXPH1,PValue NS,−2.191
same,logFC OLFM1,PValue NS,−1.154
same,logFC OSBP2,PValue NS,−1.125
same,logFC PCDHA5,PValue NS,−1.076
same,logFC PCDHA7,PValue NS,−1.111
same,logFC PCDHB13,PValue NS,−1.168
same,logFC PCDHB15,PValue NS,−1.085
same,logFC PCDHGA4,PValue NS,−1.156
same,logFC PCDHGA6,PValue NS,−1.871
same,logFC PCSK2,PValue NS,−1.936
same,logFC PEG3,PValue NS,−3.912
same,logFC PEX5L,PValue NS,−1.625
same,logFC PHACTR1,PValue NS,−1.247
same,logFC PIP4K2B,PValue NS,−0.6164
same,logFC PLCL1,PValue NS,−1.271
same,logFC PLPPR4,PValue NS,−2.082
same,logFC PLPPR5,PValue NS,−1.467
same,logFC PLXNA4,PValue NS,−1.432
same,logFC PNMA6A,PValue NS,−1.328
same,logFC PODXL2,PValue NS,−0.8136
same,logFC PRKAR1B,PValue NS,−1.374
same,logFC PTGFR,PValue NS,−2.027
same,logFC PTPRT,PValue NS,−1.789
same,logFC QPCT,PValue NS,−1.04
same,logFC RALYL,PValue NS,−2.285
same,logFC RGN,PValue NS,−1.436
same,logFC RIMS3,PValue NS,−1.119
same,logFC ROBO2,PValue NS,−1.394
same,logFC RPS6KL1,PValue NS,−1.019
same,logFC RTN2,PValue NS,−0.9099
same,logFC RTN4,PValue NS,−0.6753
same,logFC RUNDC3A,PValue NS,−1.678
same,logFC RUSC2,PValue NS,−0.9937
same,logFC SBK1,PValue NS,−0.9487
same,logFC SCAMP5,PValue NS,−0.8113
same,logFC SCRT1,PValue NS,−1.427
same,logFC SEPTIN4,PValue NS,−1.513
same,logFC SGIP1,PValue NS,−1.239
same,logFC SH3GL2,PValue NS,−1.666
same,logFC SHC2,PValue NS,−0.6933
same,logFC SHC4,PValue NS,−2.453
same,logFC SHISA7,PValue NS,−1.011
same,logFC SLC1A4,PValue NS,−1.383
same,logFC SLC4A3,PValue NS,−1.275
same,logFC SLC6A17,PValue NS,−2.434
same,logFC SLC24A3,PValue NS,−1.458
same,logFC SLC30A10,PValue NS,−1.88
same,logFC SLIT1,PValue NS,−1.122
same,logFC SLITRK3,PValue NS,−2.443
same,logFC SMIM18,PValue NS,−1.721
same,logFC SMIM22,PValue NS,−1.921
same,logFC SNAP25,PValue NS,−1.475
same,logFC SNN,PValue NS,−0.6591
same,logFC SOBP,PValue NS,−0.9125
same,logFC SOGA3,PValue NS,−1.2
same,logFC SOX4,PValue NS,−0.6592
same,logFC SPOCK2,PValue NS,−2.032
same,logFC SPRN,PValue NS,−1.245
same,logFC SRL,PValue NS,−1.711
same,logFC STMN3,PValue NS,−1.145
same,logFC SYT3,PValue NS,−1.332
same,logFC SYT4,PValue NS,−1.54
same,logFC SYT5,PValue NS,−1.94
same,logFC SYT11,PValue NS,−0.7686
same,logFC TACR1,PValue NS,−1.666
same,logFC TAFA2,PValue NS,−1.304
same,logFC TBC1D30,PValue NS,−1.541
same,logFC TCEAL6,PValue NS,−2.546
same,logFC TMCC2,PValue NS,−0.92
same,logFC TMEM35A,PValue NS,−1.274
same,logFC TMEM179,PValue NS,−1.494
same,logFC TMEM229B,PValue NS,−1.955
same,logFC TMOD2,PValue NS,−1.477
same,logFC TNR,PValue NS,−2.583
same,logFC TRIM67,PValue NS,−1.894
same,logFC UBE2QL1,PValue NS,−1.575
same,logFC UNC13A,PValue NS,−0.9018
same,logFC VAMP2,PValue NS,−0.7327
same,logFC VSTM2L,PValue NS,−1.008
same,logFC VWC2,PValue NS,−2.201
same,logFC XKR4,PValue NS,−1.301
same,logFC XKR7,PValue NS,−1.252
same,logFC ZNF436,PValue NS,−0.8527
same,logFC ZNF836,PValue NS,−0.9494
